# Values of other authors as cited in patent publication US20120172384A1, “HETEROCYCLYLAMINOPYRIMIDINES AS KINASE INHIBITORS” (priority 2009, published 2012).
# System: organ transplantation
# Conditions: Changelian et al., 2003; cited from earlier work
smiles,measurement,value
"C[C@@H]1CCN(C(=O)CC#N)C[C@@H]1N(C)c1ncnc2[nH]ccc12 [CP-690,550]",efficacy in animal model of organ transplantation,show efficacy
